In US12077503B2, “Substituted cyclic amides and their use as herbicides” (FMC CORPORATION, priority 2015, dated 2024):

Tests used:
Type in all cases: in vivo
Kochia (Kochia scoparia) [1] = assay: Test A preemergence; details: Bassia scoparia, pre-emergence, 240 h, Preemergence; for pest or weed control at 31 g/ha: 31 g ai/ha, 0 to 100 scale where 0 is no effect and 100 is complete control, read-out: Kochia plant response rating; for pest or weed control at 125 g/ha: 125 g ai/ha, 0 to 100 scale (0 no effect, 100 complete control), read-out: Plant response rating, Kochia
Procedure, shortened: (§1)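 Preemergence soil spray on seeded pots or post-emergence spray on 1–2 leaf plants, in loam–sand blend. Greenhouse ~10 d. Visual rating 0–100 against untreated plants.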

[2] = system: barnyardgrass (Echinochloa crus-galli); assay: Test A preemergence; details: Echinochloa crus-galli, pre-emergence, 240 h, Preemergence; for pest or weed control at 31 g/ha: 31 g ai/ha, 0 to 100 scale where 0 is no effect and 100 is complete control, read-out: Barnyardgrass plant response rating; for pest or weed control at 125 g/ha: 125 g ai/ha, 0 to 100 scale (0 no effect, 100 complete control), read-out: Plant response rating, Barnyardgrass
Procedure, shortened: as §1

[3] = system: giant foxtail (Setaria faberii); assay: Test A preemergence; details: Setaria faberi, pre-emergence, 240 h, Preemergence; for pest or weed control at 31 g/ha: 31 g ai/ha, 0 to 100 scale where 0 is no effect and 100 is complete control, read-out: Foxtail, Giant plant response rating; for pest or weed control at 125 g/ha: 125 g ai/ha, 0 to 100 scale (0 no effect, 100 complete control), read-out: Plant response rating, Foxtail, Giant
Procedure, shortened: as §1

[4] = system: pigweed (Amaranthus retroflexus); assay: Test A preemergence; details: Amaranthus retroflexus, pre-emergence, 240 h, Preemergence; for pest or weed control at 31 g/ha: 31 g ai/ha, 0 to 100 scale where 0 is no effect and 100 is complete control, read-out: Pigweed plant response rating; for pest or weed control at 125 g/ha: 125 g ai/ha, 0 to 100 scale (0 no effect, 100 complete control), read-out: Plant response rating, Pigweed
[5] = system: ragweed (common ragweed, Ambrosia elatior); assay: Test A preemergence; details: Ambrosia artemisiifolia, pre-emergence, 240 h, Preemergence; for pest or weed control at 31 g/ha: 31 g ai/ha, 0 to 100 scale where 0 is no effect and 100 is complete control, read-out: Ragweed plant response rating; for pest or weed control at 125 g/ha: 125 g ai/ha, 0 to 100 scale (0 no effect, 100 complete control), read-out: Plant response rating, Ragweed
Procedure, shortened: as §1

[6] = system: ryegrass, Italian (Italian ryegrass, Lolium multiflorum); assay: Test A preemergence; details: Lolium multiflorum, pre-emergence, 240 h, Preemergence; for pest or weed control at 31 g/ha: 31 g ai/ha, 0 to 100 scale where 0 is no effect and 100 is complete control, read-out: Ryegrass, Italian plant response rating; for pest or weed control at 125 g/ha: 125 g ai/ha, 0 to 100 scale (0 no effect, 100 complete control), read-out: Plant response rating, Ryegrass, Italian
Procedure, shortened: as §1

[7] = system: Galium (catchweed bedstraw, Galium aparine); assay: Test A postemergence; details: Galium, post-emergence, 240 h, Postemergence; for pest or weed control at 31 g/ha: 31 g ai/ha, 0 is no effect, 100 is complete control, read-out: Galium plant response rating (0 to 100 scale); for pest or weed control at 125 g/ha: 125 g ai/ha, visual injury after approx. 10 d, 0 to 100 scale, 0 no effect, 100 complete control, read-out: Plant response rating, Galium
Procedure, shortened: as §1

Kochia (Kochia scoparia) [8] = assay: Test A postemergence; details: Bassia scoparia, post-emergence, 240 h, Postemergence; for pest or weed control at 31 g/ha: 31 g ai/ha, 0 is no effect, 100 is complete control, read-out: Kochia plant response rating (0 to 100 scale); for pest or weed control at 125 g/ha: 125 g ai/ha, visual injury after approx. 10 d, 0 to 100 scale, 0 no effect, 100 complete control, read-out: Plant response rating, Kochia
Procedure, shortened: as §1

[9] = system: barnyardgrass (Echinochloa crus-galli); assay: Test A postemergence; details: Echinochloa crus-galli, post-emergence, 240 h, Postemergence; for pest or weed control at 31 g/ha: 31 g ai/ha, 0 is no effect, 100 is complete control, read-out: Barnyardgrass plant response rating (0 to 100 scale); for pest or weed control at 125 g/ha: 125 g ai/ha, visual injury after approx. 10 d, 0 to 100 scale, 0 no effect, 100 complete control, read-out: Plant response rating, Barnyardgrass
Procedure, shortened: as §1

[10] = system: blackgrass (Alopecurus myosuroides); assay: Test A postemergence; details: Alopecurus myosuroides, post-emergence, 240 h, Postemergence; for pest or weed control at 31 g/ha: 31 g ai/ha, 0 is no effect, 100 is complete control, read-out: Blackgrass plant response rating (0 to 100 scale); for pest or weed control at 125 g/ha: 125 g ai/ha, visual injury after approx. 10 d, 0 to 100 scale, 0 no effect, 100 complete control, read-out: Plant response rating, Blackgrass
Procedure, shortened: as §1

corn (Zea mays) = assay: Test A postemergence; details: Zea mays, post-emergence, 240 h, Postemergence; for plant injury at 31 g/ha: 31 g ai/ha, 0 is no effect, 100 is complete control, read-out: Corn plant response rating (0 to 100 scale); for Corn plant response rating (crop injury, 0 = no effect, 100 = complete kill) at 125 g/ha: 125 g ai/ha, visual injury after approx. 10 d, 0 to 100 scale, 100 complete control
Procedure, shortened: as §1

[11] = system: giant foxtail (Setaria faberii); assay: Test A postemergence; details: Setaria faberi, post-emergence, 240 h, Postemergence; for pest or weed control at 31 g/ha: 31 g ai/ha, 0 is no effect, 100 is complete control, read-out: Foxtail, Giant plant response rating (0 to 100 scale); for pest or weed control at 125 g/ha: 125 g ai/ha, visual injury after approx. 10 d, 0 to 100 scale, 0 no effect, 100 complete control, read-out: Plant response rating, Foxtail, Giant
Procedure, shortened: as §1

[12] = system: pigweed (Amaranthus retroflexus); assay: Test A postemergence; details: Amaranthus retroflexus, post-emergence, 240 h, Postemergence; for pest or weed control at 31 g/ha: 31 g ai/ha, 0 is no effect, 100 is complete control, read-out: Pigweed plant response rating (0 to 100 scale); for pest or weed control at 125 g/ha: 125 g ai/ha, visual injury after approx. 10 d, 0 to 100 scale, 0 no effect, 100 complete control, read-out: Plant response rating, Pigweed
Procedure, shortened: as §1

[13] = system: ragweed (common ragweed, Ambrosia elatior); assay: Test A postemergence; details: Ambrosia artemisiifolia, post-emergence, 240 h, Postemergence; for pest or weed control at 31 g/ha: 31 g ai/ha, 0 is no effect, 100 is complete control, read-out: Ragweed plant response rating (0 to 100 scale); for pest or weed control at 125 g/ha: 125 g ai/ha, visual injury after approx. 10 d, 0 to 100 scale, 0 no effect, 100 complete control, read-out: Plant response rating, Ragweed
Procedure, shortened: as §1

[14] = system: ryegrass, Italian (Italian ryegrass, Lolium multiflorum); assay: Test A postemergence; details: Lolium multiflorum, post-emergence, 240 h, Postemergence; for pest or weed control at 31 g/ha: 31 g ai/ha, 0 is no effect, 100 is complete control, read-out: Ryegrass, Italian plant response rating (0 to 100 scale); for pest or weed control at 125 g/ha: 125 g ai/ha, visual injury after approx. 10 d, 0 to 100 scale, 0 no effect, 100 complete control, read-out: Plant response rating, Ryegrass, Italian
Procedure, shortened: as §1

[15] = system: wheat (Triticum aestivum); assay: Test A postemergence; details: Triticum aestivum, post-emergence, 240 h, Postemergence; for plant injury at 31 g/ha: 31 g ai/ha, 0 is no effect, 100 is complete control, read-out: Wheat plant response rating (0 to 100 scale); for plant injury at 125 g/ha: 125 g ai/ha, visual injury after approx. 10 d, 0 to 100 scale, 0 no effect, 100 complete control, read-out: Plant response rating, Wheat
Procedure, shortened: as §1

[16] = system: barnyardgrass (Echinochloa crus-galli); assay: Test B flooded paddy test; details: Echinochloa crus-galli, 360 h, Flood, 250 g ai/ha; visually evaluated after 13 to 15 d; read-out: Plant response rating, Barnyardgrass (0 to 100 scale where 0 is no effect and 100 is complete control)
Procedure, shortened: (§2)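 Compound goes directly into floodwater once pots are flooded 3 cm above soil, targeting plants at two leaves; the water depth is then held for the test duration. Plants sit 13–15 d in a greenhouse and are rated visually, 100 denoting complete control.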

[17] = system: ducksalad (Heteranthera limosa); assay: Test B flooded paddy test; details: Heteranthera limosa, 360 h, Flood, 250 g ai/ha; visually evaluated after 13 to 15 d; read-out: Plant response rating, Ducksalad (0 to 100 scale where 0 is no effect and 100 is complete control)
Procedure, shortened: as §2

rice (Oryra sativa) = assay: Test B flooded paddy test; details: Oryza sativa, 360 h, Flood, 250 g ai/ha; visually evaluated after 13 to 15 d; read-out: Plant response rating, Rice (0 to 100 scale where 0 is no effect and 100 is complete control)
Procedure, shortened: as §2

[18] = system: sedge, umbrella (small-flower umbrella sedge, Cyperus difformis); assay: Test B flooded paddy test; details: Cyperus difformis, 360 h, Flood, 250 g ai/ha; visually evaluated after 13 to 15 d; read-out: Plant response rating, Sedge, Umbrella (0 to 100 scale where 0 is no effect and 100 is complete control)
Procedure, shortened: as §2

Row | Structure (SMILES) | pest or weed control at 31 g/ha (Kochia (Kochia scoparia) [1]) [%] | pest or weed control at 125 g/ha (Kochia (Kochia scoparia) [1]) [%] | pest or weed control at 31 g/ha [2] [%] | pest or weed control at 125 g/ha [2] [%] | pest or weed control at 31 g/ha [3] [%] | pest or weed control at 125 g/ha [3] [%] | pest or weed control at 31 g/ha [4] [%] | pest or weed control at 125 g/ha [4] [%] | pest or weed control at 31 g/ha [5] [%] | pest or weed control at 125 g/ha [5] [%] | pest or weed control at 31 g/ha [6] [%] | pest or weed control at 125 g/ha [6] [%] | pest or weed control at 31 g/ha [7] [%] | pest or weed control at 125 g/ha [7] [%] | pest or weed control at 31 g/ha (Kochia (Kochia scoparia) [8]) [%] | pest or weed control at 125 g/ha (Kochia (Kochia scoparia) [8]) [%] | pest or weed control at 31 g/ha [9] [%] | pest or weed control at 125 g/ha [9] [%] | pest or weed control at 31 g/ha [10] [%] | pest or weed control at 125 g/ha [10] [%] | further results
1 | CN1C[C@H](c2cccc(C(F)(F)F)c2)[C@@H](C(=O)Nc2cccnc2F)C1=O [Compound 1397] | 0 | 60 | 100 | 100 | 100 | 100 | 0 | 0 | 0 | 0 | 50 | 70 | 20 | 60 | 0 | 0 | 90 | 90 | 40 | 70 | plant injury at 31 g/ha (corn (Zea mays)): 50%; Corn plant response rating (crop injury, 0 = no effect, 100 = complete kill) at 125 g/ha (corn (Zea mays)): 90%; pest or weed control at 31 g/ha [11]: 80%; pest or weed control at 125 g/ha [11]: 90%; pest or weed control at 31 g/ha [12]: 0%; pest or weed control at 125 g/ha [12]: 0%; pest or weed control at 31 g/ha [13]: 0%; pest or weed control at 125 g/ha [13]: 0%; pest or weed control at 31 g/ha [14]: 50%; pest or weed control at 125 g/ha [14]: 40%; plant injury at 31 g/ha [15]: 40%; plant injury at 125 g/ha [15]: 70%; pest or weed control at 250 g/ha [16]: 75%; pest or weed control at 250 g/ha [17]: 100%; pest or weed control at 250 g/ha (rice (Oryra sativa)): 0%; pest or weed control at 250 g/ha [18]: 0%
2 | CN1C[C@H](c2ccc(C(F)(F)F)cc2)[C@@H](C(=O)Nc2cccc(F)n2)C1=O [Compound 1400] | 60 | 70 | 90 | 90 | 90 | 90 | 80 | 80 | 0 | 70 | 0 | 30 | 20 | 70 | 30 | 70 | 70 | 90 | 30 | 70 | plant injury at 31 g/ha (corn (Zea mays)): 20%; Corn plant response rating (crop injury, 0 = no effect, 100 = complete kill) at 125 g/ha (corn (Zea mays)): 40%; pest or weed control at 31 g/ha [11]: 70%; pest or weed control at 125 g/ha [11]: 90%; pest or weed control at 31 g/ha [12]: 50%; pest or weed control at 125 g/ha [12]: 60%; pest or weed control at 31 g/ha [13]: 0%; pest or weed control at 125 g/ha [13]: 50%; pest or weed control at 31 g/ha [14]: 30%; pest or weed control at 125 g/ha [14]: 50%; plant injury at 31 g/ha [15]: 0%; plant injury at 125 g/ha [15]: 60%; pest or weed control at 250 g/ha [16]: 80%; pest or weed control at 250 g/ha [17]: 100%; pest or weed control at 250 g/ha (rice (Oryra sativa)): 0%; pest or weed control at 250 g/ha [18]: 0%
